From US7622494B2, “Chemical compounds” (SmithKline Beecham Corporation, priority 2003, dated 2009)
pIC50: −log10 of the molar value. Structures can show the parent of a compound that is named as a salt. Where two headings read alike, the source gives them in different places. Each block holds one molecule with its values, some of them ahead of it.

System: episomal HPV-16 DNA in W12-20850 cells
Experiment: W-12 cellular assay (hybrid capture quantification of episomal HPV-16 DNA)
Type: cell-based, HPV16
Settings: read-out: W-12
Procedure: Compounds of the current invention are believed useful in the treatment and/or prophylaxis of conditions and diseases associated with HPV infection. Activity mediated through HPV was determined using the following W-12 cellular assay.
The W12 cell line used contains HPV16 DNA and was derived from a low-grade cervical dysplasia tissue by Margaret Stanley and subsequently clonally selected by Paul Lambert (University of Wisconsin). One of these clones, W12-20850, contains 1000 copies of episomal HPV16 DNA and was used in the cell-based assay. W12-20850 cells were routinely cultured with a gamma-irradiated (6000 rads) feeder layer of 3T3 cells. Assays, however, were run in the absence of a 3T3 feeder layer. W12-20850 and 3T3 cells were routinely split when they were sub-confluent. W12-20850 were grown in W12 Medium which is constituted of 25% DMEM (Gibco BRL, Cat # 12430-047), 75% F12 Media (Gibco BRL, Cat # 11765-021) and 2.5% FBS. The additives include […] Adenine (Sigma, Cat # A-9795), […] Hydrocortisone (Calbiochem, Cat # 386698); 5.0 mg/ml Bovine Insulin (Sigma, Cat # I-1882), 8.4 ng/ml cholera toxin (Fluka, Cat # 26694) and 10 ng/ml EGF (Invitrogen, Cat # 13247-051). 3T3 cells were grown in DMEM containing 10% FBS. Cell lines were incubated at 37° C., in the presence of 5% CO2.
For the assay, W12-20850 cells were seeded into a 96 well plate-containing compound. Plates were incubated at 37° C. in the presence of 5% CO2, for four days. On the fourth day, cells were lysed and the amount of episomal. HPV-16 DNA was quantified using a non-radioactive hybrid capture technique with HPV-16 specific capture and detection probes. The percent inhibition relative to untreated control cells' was then determined.
The hybrid capture assay is run in a 96 well plate format. Hybridization plates (Nunc Maxisorb Cat # 450320) were coated with a mixture of capture probe and ReactiBind solution for at least 4 hours and then washed with 0.2×SSC, 0.05% Tween20 (SSCT) prior to blocking with […] of 0.2 N NaOH, 1% Igepal, 10 mg/ml hsDNA for 6-8 hours. The hybridization was carried out by mixing 27 μl of lysed cells with 45 μl of denatured detection probe in 6M guanidine isothiocyanate. To prevent evaporation, 50 μl of mineral oil was added to each well. The plate was then heated to 90° C. for 6.5 minutes and the hybridization continued at 42° C. overnight. Assay plates were washed 6 times with SSC/T. Anti-digoxigenin HRP-conjugated Ab (Boehringer Mannheim 1207733, 1:5000) was incubated in the wells for 30 min at room temperature and washed with PBS/0.05% Tween-20. SuperSignal LBA substrate (Pierce Cat # 37070) was added, and chemiluminescence was measured using Wallac 1420 Victor plate reader.

[1] = Human papillomavirus 16, W12-20850, 96 h
[2] = Human papillomavirus 16, 96 h, W12-20850 cells, four days incubation, episomal HPV-16 DNA by hybrid capture, inhibition relative to untreated control cells

Structure (SMILES): c1ccc(CNC2CCCc3c2[nH]c2ccccc32)cc1 (stereo not shown) [Example 15, N-Benzyl-2,3,4,9-tetrahydrocarbazole-1-amine hydrochloride salt]
- pIC50 [1]: 5.18

Structure (SMILES): COc1ccc(CNC2CCCc3c2[nH]c2ccccc32)cc1 (stereo not shown) [Example 16, N-(4-Methoxybenzyl)-2,3,4,9-tetrahydro-1H-carbazol-1-amine hydrochloride salt]
- pIC50 [1]: 5.82

Structure (SMILES): c1ccc(CCNC2CCCc3c2[nH]c2ccccc32)cc1 (stereo not shown) [Example 17, N-(2-Phenylethyl)-2,3,4,9-tetrahydro-1H-carbazol-1-amine hydrochloride salt]
- pIC50 [1]: 5.13

Structure (SMILES): C[C@@H](NC1CCCc2c1[nH]c1ccccc21)c1ccccc1 (stereo partly drawn) [Example 18, N-[(1R)-1-Phenylethyl]-2,3,4,9-tetrahydro-1H-carbazol-1-amine hydrochloride salt]
- pIC50 [1]: 4.91

Structure (SMILES): c1ccc2c3c([nH]c2c1)C(NC1CCCCC1)CCC3 (stereo not shown) [Example 19, N-Cyclohexyl-2,3,4,9-tetrahydro-1H-carbazol-1-amine hydrochloride salt]
- pIC50 [1]: 4.84

- pIC50 [2]: 5.48
Structure (SMILES): c1ccc2c(c1)CC(NC1CCCc3c1[nH]c1ccccc31)C2 (stereo not shown) [Example 20, N-(2.3-Dihydro-1H-inden-2-yl)-2,3,4,9-tetrahydro-1H-carbazol-1-amine hydrochloride salt]

Structure (SMILES): CCCNC1CCCc2c1[nH]c1ccccc21 (stereo not shown) [Example 21, N-Propyl-2,3,4,9-tetrahydro-1H-carbazol-1-amine hydrochloride salt]
- pIC50 [1]: 4.40

Structure (SMILES): COCCNC1CCCc2c1[nH]c1ccccc21 (stereo not shown) [Example 22, N-(2-Methoxyethyl)-2,3,4,9-tetrahydro-1H-carbazol-1-amine hydrochloride salt]
- pIC50 [1]: 4.33

Structure (SMILES): OC[C@H](NC1CCCc2c1[nH]c1ccccc21)c1ccccc1 (stereo partly drawn) [Example 23, (2R)-2-Phenyl-2-(2,3,4,9-tetrahydro-1H-carbazol-1-ylamino)ethanol hydrochloride salt]
- pIC50 [1]: 4.52

- pIC50 [2]: 5.28
Structure (SMILES): C[C@@H](CCc1ccccc1)NC1CCCc2c1[nH]c1ccccc21 (stereo partly drawn) [Example 24, N-[(1S)-1-Methyl-3-Phenylpropyl]-2,3,4,9-tetrahydro-1H-carbazol-1-aminehydrochloride salt]

- pIC50 [2]: 5.82
Structure (SMILES): c1ccc2c3c([nH]c2c1)C(NCc1ccc2c(c1)OCO2)CCC3 (stereo not shown) [Example 25, N-(1.3-Benzodioxol-5-ylmethyl)-2,3,4,9-tetrahydro-1H-carbazol-1-amine hydrochloride salt]

Structure (SMILES): Brc1ccc2[nH]c3c(c2c1)CCCC3NCCc1ccccc1 (stereo not shown) [Example 26, 6-Bromo-N-(2-phenylethyl)-2,3,4,9-tetrahydro-1H-carbazol-1-amine hydrochloride salt]
- pIC50 [1]: 6.39

Structure (SMILES): Brc1ccc2[nH]c3c(c2c1)CCC[C@H]3NC1Cc2ccccc2C1 [Example 27, (1R)-6-Bromo-N-(2,3-dihydro-1H-inden-2-yl)-2,3,4,9-tetrahydro-1H-carbazol-1-amine hydrochloride salt]
- pIC50 [1]: 7.24

- pIC50 [2]: 5.43
Structure (SMILES): Brc1ccc2[nH]c3c(c2c1)CCC[C@@H]3NC1Cc2ccccc2C1 [Example 28, (1S)-6-Bromo-N-(2.3-dihydro-1H-inden-2-yl)-2,3,4,9-tetrahydro-1H-carbazol-1-amine hydrochloride salt]

Structure (SMILES): Brc1ccc2[nH]c3c(c2c1)CCCC3NCc1ccccc1 (stereo not shown) [Example 29, N-Benzyl-6-bromo-2,3,4,9-tetrahydro-1H-carbazol-1-amine hydrochloride salt]
- pIC50 [1]: 6.94

Structure (SMILES): C[C@@H](NC1CCCc2c1[nH]c1ccc(Br)cc21)c1ccccc1 (stereo partly drawn) [Example 30, 6-Bromo-N-[(1R)-1-phenylethyl]-2,3,4,9-tetrahydro-1H-carbazol-1-amine hydrochloride salt]
- pIC50 [1]: > 6.70

Structure (SMILES): C[C@@H](N[C@@H]1CCCc2c1[nH]c1ccc(Br)cc21)c1ccccc1 [Example 31, (1R)-6-bromo-N-[(1R)-1-phenylethyl]-2,3,4,9-tetrahydro-1 H-carbazol-1-amine hydrochloride salt]
- pIC50 [1]: 7.52

Structure (SMILES): C[C@@H](N[C@H]1CCCc2c1[nH]c1ccc(Br)cc21)c1ccccc1 [Example 32, (1S)-6-Bromo-N-[(1R)-1-Phenylethyl]-2,3,4,9-tetrahydro-1H-carbazol-1-amine hydrochloride salt]
- pIC50 [1]: 6.28

Structure (SMILES): CC(C)(NC1CCCc2c1[nH]c1ccc(Br)cc21)c1ccccc1 (stereo not shown) [Example 33, 6-Bromo-N-(1-methyl-1-phenylethyl)-2,3,4,9-tetrahydro-1H-carbazol-1-amine hydrochloride salt]
- pIC50 [1]: 6.12

Structure (SMILES): C[C@H](NC1CCCc2c1[nH]c1ccc(Br)cc21)c1ccccc1 (stereo partly drawn) [Example 34, 6-Bromo-N-[(1S)-1-phenylethyl]-2,3,4,9-tetrahydro-1H-carbazol-1-amine hydrochloride salt]
- pIC50 [1]: 6.54

Structure (SMILES): C[C@H](N[C@H]1CCCc2c1[nH]c1ccc(Br)cc21)c1ccccc1 [Example 35, (1S)-6-Bromo-N-[(1S)-1-phenylethyl]-2,3,4,9-tetrahydro-1H-carbazol-1-amine hydrochloride salt]
- pIC50 [1]: 5.52

Structure (SMILES): C[C@H](N[C@@H]1CCCc2c1[nH]c1ccc(Br)cc21)c1ccccc1 [Example 36, (1R)-6-Bromo-N-[(1S)-1-phenylethyl]-2,3,4,9-tetrahydro-1H-carbazol-1-amine hydrochloride salt]
- pIC50 [1]: 7.70

Structure (SMILES): CN(CCc1ccccc1)C1CCCc2c1[nH]c1ccc(Br)cc21 (stereo not shown) [Example 37, 6-Bromo-N-methyl-N-(2-phenylethyl)-2,3,4,9-tetrahydro-1H-carbazol-1-amine hydrochloride salt]
- pIC50 [1]: 5.52

Structure (SMILES): Cn1c2c(c3cc(Br)ccc31)CCCC2NCCc1ccccc1 (stereo not shown) [Example 38, 6-Bromo-9-methyl-N-(2-phenylethyl)-2,3,4,9-tetrahydro-1H-carbazol-1-amine hydrochloride salt]
- pIC50 [1]: 4.57

Structure (SMILES): C[C@@H](CNC1CCCc2c1[nH]c1ccc(Br)cc21)c1ccccc1 (stereo partly drawn) [Example 39, 6-Bromo-N-[(2R)-2-phenylpropyl]-2,3,4,9-tetrahydro-1H-carbazol-1-amine hydrochloride salt]
- pIC50 [1]: 6.80

Structure (SMILES): Cc1ccc2[nH]c3c(c2c1)CCCC3NCCc1ccccc1 (stereo not shown) [Example 40, 6-Methyl-N-(2-phenylethyl)-2,3,4,9-tetrahydro-1H-carbazol-1-amine hydrochloride salt]
- pIC50 [1]: 5.57

- pIC50 [2]: 6.40
Structure (SMILES): Cc1ccc2[nH]c3c(c2c1)CCCC3NC1Cc2ccccc2C1 (stereo not shown) [Example 41, N-(2.3-Dihydro-1H-inden-2-yl)-6-methyl-2,3,4,9-tetrahydro-1H-carbazol-1-amine hydrochloride-salt]

Structure (SMILES): Cc1ccc2[nH]c3c(c2c1)CCCC3N[C@H](C)c1ccccc1 (stereo partly drawn) [Example 42, 6-Methyl-N-[(1R)-1-phenylethyl]-2,3,4,9-tetrahydro-1H-carbazol-1-amine hydrochloride salt]
- pIC50 [1]: 6.27

Structure (SMILES): Cc1ccc2[nH]c3c(c2c1)CCC[C@H]3N[C@H](C)c1ccccc1 [Example 43, hydrochloride salt]
- pIC50 [1]: 6.62

Structure (SMILES): Cc1ccc2[nH]c3c(c2c1)CCC[C@@H]3N[C@H](C)c1ccccc1 [Example 44, (1S)-6-Methyl-N-[(1R)-1-phenylethyl]-2,3,4,9-tetrahydro-1H-carbazol-1-amine hydrochloride salt]
- pIC50 [1]: 5.08

Structure (SMILES): Cc1ccc2[nH]c3c(c2c1)CCCC3N[C@@H](C)c1ccccc1 (stereo partly drawn) [Example 45, 6-Methyl-N-[(1S)-1-phenylethyl]-2,3,4,9-tetrahydro-1H-carbazol-1-amine hydrochloride salt]
- pIC50 [1]: 5.15

Structure (SMILES): Cc1ccc2[nH]c3c(c2c1)CCC[C@@H]3N[C@@H](C)c1ccccc1 [Example 46, (1S)-6-Methyl-N-[(1S)-1-phenylethyl]-2,3,4,9-tetrahydro-1H-carbazol-1-amine hydrochloride salt]
- pIC50 [1]: 5.07

Structure (SMILES): Cc1ccc2[nH]c3c(c2c1)CCC[C@H]3N[C@@H](C)c1ccccc1 [Example 47, (1R)-6-Methyl-N-[(1S)-1-phenylethyl]-2,3,4,9-tetrahydro-1H-carbazol-1-amine hydrochloride salt]
- pIC50 [1]: 6.80

Structure (SMILES): C[C@@H](NC1CCCc2c1[nH]c1ccc([N+](=O)[O-])cc21)c1ccccc1 (stereo partly drawn) [Example 49, 6-Nitro-N-[(1R)-1-phenylethyl]-2,3,4,9-tetrahydro-1H-carbazol-1-amine hydrochloride salt]
- pIC50 [1]: 7.08
